Source: PubChem BioAssay AID2060623 (Molecular Pharmacology Branch, DTP, NCI, 2025)
Several values for one entry are separate records, joined by “and”; a condition that tells them apart may be missing. Equal values may be shown once.

System: 227483-062-R1-J1-PDC complex spheroids with HUVEC/MSC, viability
Test: Anticancer human tumor 227483-062-R1-J1-PDC patient-derived pancreatic carcinoma cell line growth inhibition [CLK]
Settings: for viability, T/C: stronger effect = lower value
Method in brief: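 Multi-cell-type spheroids combined patient-derived tumor cells with HUVEC endothelial cells and human mesenchymal stem cells. Paired agents were dosed in half-log steps down from about clinical Cmax, or from 10 microM where Cmax was unknown.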

[1] = curve of first compound, second compound 0.0316 µM
[2] = curve of first compound, second compound 0.1 µM
[3] = curve of first compound, second compound 0.316 µM
[4] = curve of first compound, second compound 1 µM
[5] = curve of first compound, second compound 3.16 µM
[6] = curve of first compound, second compound 10 µM
[7] = second compound 0.0316 µM, first compound 0.0316 µM
[8] = second compound 0.0316 µM, first compound 0.1 µM
[9] = second compound 0.0316 µM, first compound 0.316 µM
[10] = second compound 0.0316 µM, first compound 1 µM
[11] = second compound 0.0316 µM, first compound 3.16 µM
[12] = second compound 0.0316 µM, first compound 10 µM
[13] = second compound 0.1 µM, first compound 0.0316 µM
[14] = second compound 0.1 µM, first compound 0.1 µM
[15] = second compound 0.1 µM, first compound 0.316 µM
[16] = second compound 0.1 µM, first compound 1 µM
[17] = second compound 0.1 µM, first compound 3.16 µM
[18] = second compound 0.1 µM, first compound 10 µM
[19] = second compound 0.316 µM, first compound 0.0316 µM
[20] = second compound 0.316 µM, first compound 0.1 µM
[21] = second compound 0.316 µM, first compound 0.316 µM
[22] = second compound 0.316 µM, first compound 1 µM
[23] = second compound 0.316 µM, first compound 3.16 µM
[24] = second compound 0.316 µM, first compound 10 µM
[25] = second compound 1 µM, first compound 0.0316 µM
[26] = second compound 1 µM, first compound 0.1 µM
[27] = second compound 1 µM, first compound 0.316 µM
[28] = second compound 1 µM, first compound 1 µM
[29] = second compound 1 µM, first compound 3.16 µM
[30] = second compound 1 µM, first compound 10 µM
[31] = second compound 3.16 µM, first compound 0.0316 µM
[32] = second compound 3.16 µM, first compound 0.1 µM
[33] = second compound 3.16 µM, first compound 0.316 µM
[34] = second compound 3.16 µM, first compound 1 µM
[35] = second compound 3.16 µM, first compound 3.16 µM
[36] = second compound 3.16 µM, first compound 10 µM
[37] = second compound 10 µM, first compound 0.0316 µM
[38] = second compound 10 µM, first compound 0.1 µM
[39] = second compound 10 µM, first compound 0.316 µM
[40] = second compound 10 µM, first compound 1 µM
[41] = second compound 10 µM, first compound 3.16 µM
[42] = second compound 10 µM, first compound 10 µM
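Note: spheroids exposed to compounds for seven days before readout.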
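Throughout, for viability, T/C: percent of DMSO vehicle control luminescence as 100% viability.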

C=CC(=O)N1CCN(c2nc(=O)n(-c3c(C)ccnc3C(C)C)c3nc(-c4c(O)cccc4F)c(F)cc23)C(C)C1 (configuration not stated) + CN1CCN(c2cc(C(=O)Nc3cc4cc(-c5cnn(C)c5)ccc4cn3)ccn2)CC1
IC50 [1]: > 10 µM
IC50 [2]: > 10 µM
IC50 [3]: < 0.0316 µM
IC50 [4]: < 0.0316 µM
IC50 [5]: < 0.0316 µM
IC50 [6]: < 0.0316 µM
viability, T/C [7]: 90.4%
viability, T/C [8]: 97.5%
viability, T/C [9]: 94.7%
viability, T/C [10]: 104%
viability, T/C [11]: 104%
viability, T/C [12]: 85.5%
viability, T/C [13]: 63.2%
viability, T/C [14]: 68.1%
viability, T/C [15]: 63.1%
viability, T/C [16]: 76.8%
viability, T/C [17]: 66.4%
viability, T/C [18]: 52.7%
viability, T/C [19]: 6.84%
viability, T/C [20]: 6.59%
viability, T/C [21]: 5.21%
viability, T/C [22]: 7.81%
viability, T/C [23]: 5.13%
viability, T/C [24]: 3.55%
viability, T/C [25]: 3.36%
viability, T/C [26]: 2.83%
viability, T/C [27]: 2.54%
viability, T/C [28]: 3.57%
viability, T/C [29]: 6.05%
viability, T/C [30]: 3.88%
viability, T/C [31]: 3.58%
viability, T/C [32]: 3.65%
viability, T/C [33]: 5.09%
viability, T/C [34]: 5.88%
viability, T/C [35]: 6.54%
viability, T/C [36]: 6.07%
viability, T/C [37]: 3.12%
viability, T/C [38]: 2.35%
viability, T/C [39]: 4.11%
viability, T/C [40]: 3.93%
viability, T/C [41]: 6.11%
viability, T/C [42]: 3.94%

C=C(F)C(=O)N1CCN(c2nc(OCC3CCCN3C)nc3c2CCN(c2cccc4cccc(Cl)c24)C3)CC1CC#N (configuration not stated)
viability, T/C (compound 0.0316 µM): 107% and 89.9%
viability, T/C (compound 0.1 µM): 108% and 97.9%
viability, T/C (compound 0.316 µM): 109% and 91.9%
viability, T/C (compound 1 µM): 113% and 122%
viability, T/C (compound 3.16 µM): 86.3% and 89%
viability, T/C (compound 10 µM): 19% and 28%
IC50 (curve of compound): 5.88 µM and 6.6 µM

CC1(C)CCC(CN2CCN(c3ccc(C(=O)NS(=O)(=O)c4ccc(NCC5CCOCC5)c([N+](=O)[O-])c4)c(Oc4cnc5[nH]ccc5c4)c3)CC2)=C(c2ccc(Cl)cc2)C1 + CNC(=O)c1ccc(Nc2nc(OC3CCCC3)c3c(-c4ccc5nc(C)oc5c4)c[nH]c3n2)c(OC)c1
IC50 [1]: 5.96 µM
IC50 [2]: 5.53 µM
IC50 [3]: 5.27 µM
IC50 [4]: 4.51 µM
IC50 [5]: 3.45 µM
IC50 [6]: < 0.0316 µM
viability, T/C [7]: 96.7%
viability, T/C [8]: 101%
viability, T/C [9]: 100%
viability, T/C [10]: 121%
viability, T/C [11]: 101%
viability, T/C [12]: 8.36%
viability, T/C [13]: 90.2%
viability, T/C [14]: 93.6%
viability, T/C [15]: 87.7%
viability, T/C [16]: 85.9%
viability, T/C [17]: 87.8%
viability, T/C [18]: 9.86%
viability, T/C [19]: 100%
viability, T/C [20]: 91.2%
viability, T/C [21]: 78.7%
viability, T/C [22]: 88.5%
viability, T/C [23]: 84.6%
viability, T/C [24]: 6.46%
viability, T/C [25]: 70.6%
viability, T/C [26]: 67.2%
viability, T/C [27]: 73.1%
viability, T/C [28]: 85.3%
viability, T/C [29]: 67.2%
viability, T/C [30]: 9.18%
viability, T/C [31]: 50.3%
viability, T/C [32]: 63.3%
viability, T/C [33]: 55.3%
viability, T/C [34]: 57.6%
viability, T/C [35]: 53.3%
viability, T/C [36]: 7.8%
viability, T/C [37]: 48%
viability, T/C [38]: 45%
viability, T/C [39]: 51.7%
viability, T/C [40]: 46.3%
viability, T/C [41]: 44.1%
viability, T/C [42]: 9.45%

C#Cc1c(F)ccc2cc(O)cc(-c3ncc4c(N5CC6CCC(C5)N6)nc(OCC56CCCN5CC(F)C6)nc4c3F)c12 (configuration not stated) + CN1CCN(c2cc(C(=O)Nc3cc4cc(-c5cnn(C)c5)ccc4cn3)ccn2)CC1
IC50 [1]: > 10 µM
IC50 [2]: > 10 µM
IC50 [3]: < 0.0316 µM
IC50 [4]: < 0.0316 µM
IC50 [5]: < 0.0316 µM
IC50 [6]: < 0.0316 µM
viability, T/C [7]: 95.4%
viability, T/C [8]: 97%
viability, T/C [9]: 128%
viability, T/C [10]: 114%
viability, T/C [11]: 108%
viability, T/C [12]: 69.7%
viability, T/C [13]: 66.1%
viability, T/C [14]: 70.6%
viability, T/C [15]: 67.7%
viability, T/C [16]: 81.6%
viability, T/C [17]: 68.8%
viability, T/C [18]: 52.3%
viability, T/C [19]: 5.84%
viability, T/C [20]: 7.37%
viability, T/C [21]: 7.6%
viability, T/C [22]: 7.53%
viability, T/C [23]: 10%
viability, T/C [24]: 6.58%
viability, T/C [25]: 3.51%
viability, T/C [26]: 2.53%
viability, T/C [27]: 1.89%
viability, T/C [28]: 3.48%
viability, T/C [29]: 1.46%
viability, T/C [30]: 1.87%
viability, T/C [31]: 4.16%
viability, T/C [32]: 4.44%
viability, T/C [33]: 3.89%
viability, T/C [34]: 3.43%
viability, T/C [35]: 3.41%
viability, T/C [36]: 2.74%
viability, T/C [37]: 4.25%
viability, T/C [38]: 2.63%
viability, T/C [39]: 2.09%
viability, T/C [40]: 4%
viability, T/C [41]: 1.52%
viability, T/C [42]: 1.15%

C#Cc1c(F)ccc2cc(O)cc(-c3ncc4c(N5CC6CCC(C5)N6)nc(OCC56CCCN5CC(F)C6)nc4c3F)c12 (configuration not stated)
viability, T/C (compound 0.0316 µM): 102% and 90.9%
viability, T/C (compound 0.1 µM): 93.7% and 102%
viability, T/C (compound 0.316 µM): 120% and 105%
viability, T/C (compound 1 µM): 130% and 104%
viability, T/C (compound 3.16 µM): 106% and 124%
viability, T/C (compound 10 µM): 98.6% and 78.4%
IC50 (curve of compound): > 10 µM

C=C(F)C(=O)N1CCN(c2nc(OCC3CCCN3C)nc3c2CCN(c2cccc4cccc(Cl)c24)C3)CC1CC#N (configuration not stated) + CN1CCN(c2cc(C(=O)Nc3cc4cc(-c5cnn(C)c5)ccc4cn3)ccn2)CC1
IC50 [1]: 6.19 µM
IC50 [2]: 4.89 µM
IC50 [3]: < 0.0316 µM
IC50 [4]: < 0.0316 µM
IC50 [5]: < 0.0316 µM
IC50 [6]: < 0.0316 µM
viability, T/C [7]: 87.7%
viability, T/C [8]: 104%
viability, T/C [9]: 102%
viability, T/C [10]: 86.8%
viability, T/C [11]: 89.8%
viability, T/C [12]: 21.3%
viability, T/C [13]: 67.6%
viability, T/C [14]: 73.8%
viability, T/C [15]: 68%
viability, T/C [16]: 78.8%
viability, T/C [17]: 78.2%
viability, T/C [18]: 11.8%
viability, T/C [19]: 5.59%
viability, T/C [20]: 5.63%
viability, T/C [21]: 5.48%
viability, T/C [22]: 4.47%
viability, T/C [23]: 5.37%
viability, T/C [24]: 0.42%
viability, T/C [25]: 3.8%
viability, T/C [26]: 3.22%
viability, T/C [27]: 2.15%
viability, T/C [28]: 3.98%
viability, T/C [29]: 0.88%
viability, T/C [30]: 0.97%
viability, T/C [31]: 5.83%
viability, T/C [32]: 2.98%
viability, T/C [33]: 3.49%
viability, T/C [34]: 4.77%
viability, T/C [35]: 1.3%
viability, T/C [36]: 1.8%
viability, T/C [37]: 3.7%
viability, T/C [38]: 1.84%
viability, T/C [39]: 3.88%
viability, T/C [40]: 2.09%
viability, T/C [41]: 1.69%
viability, T/C [42]: 0.39%
